According to paper PMC10932284 (International Journal of Molecular Sciences, 2024):
Where two headings read alike, the source gives them in different places.

Key:
[1] = target: T1, MtCA2 (Mycobacterium tuberculosis, UniProt P9WPJ9); assay: stopped-flow CO2 hydrase assay, MtCA2; type: biochemical; conditions: for Selectivity Index (SI) hCA II/MtCA2: ratio of Ki values
T1 construct: made in house
Procedure: BTDs 2a-2t were submitted to a stopped-flow CO2 hydrase kinetic assay to evaluate the inhibitory profile against the mycobacterial β-CAs MtCA1, MtCA2, MtCA3 (Table 1), in comparison to the inhibitory effect on hCA I and II, which were selected due to their abundance in the human organism and thus off-target in this study.
A stopped-flow instrument from Applied Photophysics was utilized to assess the inhibition of CA-catalyzed CO2 hydration activity. […] The assay employed 20 mM HEPES (pH 8.3) as a buffer and 20 mM Na2SO4 to maintain constant ionic strength. The investigation focused on the initial rates of the CA-catalyzed CO2 hydration reaction over a duration of 10–100 s. CO2 concentrations ranging from 1.7 to 17 mM were employed to determine kinetic parameters and inhibition constants. For each inhibitor, a minimum of six traces of the initial 5–10% of the reaction were utilized to determine the initial velocity. Uncatalyzed rates were determined in a similar manner and subtracted from the overall observed rates. Inhibitor stock solutions (0.1 mM) were initially prepared in distilled–deionized water, followed by subsequent dilutions up to 0.01 nM with the assay buffer. To allow for the formation of the E-I complex, inhibitor and enzyme solutions were preincubated together for 15 min at room temperature before the assay. The inhibition constants were derived through nonlinear least-squares methods using PRISM and the Cheng–Prusoff equation, as previously reported, representing the mean from at least three different determinations.

[2] = target: MtCA3 (Mycobacterium tuberculosis, UniProt P96878); assay: biochemical; conditions: for Selectivity Index (SI) hCA II/MtCA3: ratio of Ki values; for Ki: stopped-flow CO2 hydrase assay, mean from three assays
[3] = target: hCA II; parameters: method as in PMID 31794211; conditions: stopped-flow CO2 hydrase assay; cited from earlier work
[4] = target: hCA I; parameters: method as in PMID 31794211; conditions: stopped-flow CO2 hydrase assay; cited from earlier work
[5] = target: T2, MtCA1 (Mycobacterium tuberculosis, UniProt P9WPJ7); assay: biochemical; conditions: for Selectivity Index (SI) hCA II/MtCA1: ratio of Ki values
T2 construct: made in house

[6] = tested on: M. tuberculosis strain susceptible to rifampicin and isoniazid; assay: tuberculostatic activity assay, strain susceptible to rifampicin and isoniazid; type: cell-based, Mycobacterium tuberculosis; conditions: for growth inhibition of mycobacteria (in words): 1 µg/mL; for number of M. tuberculosis colonies/standard inoculum volume (0.2 mL): 28 days, 37 °C
[7] = stopped-flow CO2 hydrase assay, mean from three assays, read-out: Ki MtCA1
[8] = 1 µg/mL in Lowenstein Jensen medium
[9] = 2 µg/mL in Lowenstein Jensen medium

T2 sequence (P9WPJ7 whole entry): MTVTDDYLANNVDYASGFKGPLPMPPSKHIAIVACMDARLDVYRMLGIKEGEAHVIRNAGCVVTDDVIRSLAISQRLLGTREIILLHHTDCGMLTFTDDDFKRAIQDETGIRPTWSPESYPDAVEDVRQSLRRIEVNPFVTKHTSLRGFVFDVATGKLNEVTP
Sequence of MtCA3 (P96878 550-764 limits assumed): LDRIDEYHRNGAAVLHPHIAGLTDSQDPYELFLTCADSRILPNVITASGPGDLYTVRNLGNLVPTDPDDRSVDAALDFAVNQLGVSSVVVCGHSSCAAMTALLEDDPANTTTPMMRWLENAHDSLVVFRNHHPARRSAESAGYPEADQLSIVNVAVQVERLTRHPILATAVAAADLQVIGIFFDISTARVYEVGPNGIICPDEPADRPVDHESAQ
T1 sequence (P9WPJ9 whole entry, looked up): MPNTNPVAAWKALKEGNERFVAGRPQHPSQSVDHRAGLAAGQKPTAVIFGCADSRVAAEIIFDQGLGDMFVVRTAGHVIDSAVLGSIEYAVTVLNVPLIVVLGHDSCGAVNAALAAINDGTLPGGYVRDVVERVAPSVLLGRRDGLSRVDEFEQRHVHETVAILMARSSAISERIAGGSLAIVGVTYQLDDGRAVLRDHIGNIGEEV

| Compound | Ki [1] | Selectivity Index (SI) hCA II/MtCA2 [1] | Selectivity Index (SI) hCA II/MtCA3 [2] | Ki [2] | Ki [3] | Ki [4] | Selectivity Index (SI) hCA II/MtCA1 [5] | Ki [5, 7] | Ki [5] | growth inhibition of mycobacteria (in words) [6] | number of M. tuberculosis colonies/standard inoculum volume (0.2 mL) [6, 8] | number of M. tuberculosis colonies/standard inoculum volume (0.2 mL) [6, 9] |
| --- | --- | --- | --- | --- | --- | --- | --- | --- | --- | --- | --- | --- |
| Cc1ccc(C)c2c1NC(=O)NS2(=O)=O [2e] | 2370 ± 167 nM | 0.9 | 1.4 | 1540 ± 91 nM | 2190 nM | 2540 nM | <0.2 | > 10000 nM |  |  |  |  |
| O=C1Nc2ccc(Br)cc2S(=O)(=O)N1 [2l] | 200 ± 14 nM | 11.8 | 26.2 | 90.1 ± 6.7 nM | 2360 nM | 4400 nM | 0.8 | 2960 ± 213 nM |  |  |  |  |
| CN1C(=O)NS(=O)(=O)c2cc(Cl)ccc21 [2p] | 135 ± 9 nM | 17.3 | 50.8 | 46 ± 3.3 nM | 2340 nM | > 10000 nM | 2.0 | 1180 ± 75 nM |  |  |  |  |
| O=C1Nc2ccc(C(=O)O)cc2S(=O)(=O)N1 [2s] | 223 ± 18 nM | 30.4 |  | 101 ± 5 nM | 6780 nM | > 10000 nM | 1.4 |  | 4870 ± 315 nM |  |  |  |
| Cc1cccc2c1NC(=O)NS2(=O)=O [2b] | 58.5 ± 1.7 nM | 2.5 | 6.8 | 21.3 ± 1.7 nM | 144 nM | 969 nM | 0.1 | 1460 ± 101 nM |  |  |  |  |
| Cc1cc(C)c2c(c1)S(=O)(=O)NC(=O)N2 [2d] |  |  |  | 15.1 ± 0.9 nM | 764 nM | 1270 nM |  | 934 ± 78 nM |  | active | 0 colonies | 0 colonies |
| O=C1Nc2c(Cl)cccc2S(=O)(=O)N1 [2i] | 214 ± 13 nM | 3.2 | 15.5 | 44.3 ± 2.9 nM | 686 nM | 930 nM | 0.5 | 1500 ± 89 nM |  |  |  |  |
| Cc1cc(C)c2c(c1)NC(=O)NS2(=O)=O [2f] | 4480 ± 277 nM | 0.7 | 1.3 | 2250 ± 168 nM | 2940 nM | 1920 nM | <0.3 | > 10000 nM |  |  |  |  |
| CC(=O)Nc1nnc(S(N)(=O)=O)s1 [AAZ, acetazolamide, reference compound] |  |  |  |  |  |  |  |  |  | active | 0 colonies | 0 colonies |
| O=C1Nc2ccc(Cl)cc2S(=O)(=O)N1 [2j] | 67.1 ± 4.3 nM | 17.0 | 28.7 | 39.8 ± 2.2 nM | 1140 nM | 1860 nM | 0.5 | 2460 ± 174 nM |  |  |  |  |
| O=C1Nc2ccc(F)cc2S(=O)(=O)N1 [2h] | 42.5 ± 1.6 nM |  |  |  | 534 nM | 1290 nM |  | 1830 ± 137 nM |  | active | 0 colonies | 0 colonies |
| CC(=O)/N=c1/sc(S(N)(=O)=O)nn1C [MTZ, reference compound] |  |  |  |  |  |  |  |  |  |  | 30–100 colonies | 0 colonies |
| O=C1Nc2ccccc2S(=O)(=O)N1 [2a] | 68.6 ± 3.1 nM | 2.2 | 5.2 | 28.7 ± 2.1 nM | 150 nM | 866 nM | 0.1 | 1680 ± 93 nM |  |  |  | 0 colonies |
| O=C1Nc2c(C(=O)O)cccc2S(=O)(=O)N1 [2r] | 105 ± 6 nM | 23.2 | 37.4 | 65.4 ± 3.9 nM | 2450 nM | 5780 nM | 0.7 | 3280 ± 204 nM |  |  |  |  |
| O=C1NS(=O)(=O)c2cccc3c2N1CC3 [2q] | 599 ± 31 nM | 1.8 | 13.9 | 76.2 ± 5.6 nM | 1060 nM | 6860 nM | 1.2 | 883 ± 24 nM |  |  |  |  |
| Cc1ccc2c(c1)S(=O)(=O)NC(=O)N2 [2c] | 41.3 ± 2 nM | 21.1 | 47.1 | 18.5 ± 1.6 nM | 872 nM | 1070 nM | 0.8 |  | 1050 ± 65 nM | active | 0 colonies | 0 colonies |
| O=C1Nc2c(F)cccc2S(=O)(=O)N1 [2g] | 62.9 ± 2.5 nM | 2.2 | 8.6 | 16.2 ± 1.1 nM | 140 nM | 547 nM | 0.1 | 1290 ± 96 nM |  |  |  |  |
| CN1C(=O)NS(=O)(=O)c2ccccc21 [2o] | 39.6 ± 2.1 nM | 21.5 | 26.2 | 32.5 ± 2.4 nM | 853 nM | 3410 nM | 1.5 | 556 ± 37 nM |  |  |  |  |
| COc1ccc2c(c1)S(=O)(=O)NC(=O)N2 [2m] | 152 ± 11 nM | 12.6 | 32.5 | 59.2 ± 4.2 nM | 1920 nM | 3810 nM | 0.7 | 2760 ± 166 nM |  |  |  |  |
| O=C1Nc2c(Br)cccc2S(=O)(=O)N1 [2k] | 458 ± 25 nM | 1.1 | 6.4 | 82.4 ± 4.9 nM | 527 nM | 2320 nM | 0.5 | 993 ± 33 nM |  |  |  |  |
| O=C1Nc2c(ccc3ccccc23)S(=O)(=O)N1 [2n] | 995 ± 35 nM | 0.5 | 4.0 | 120 ± 8 nM | 484 nM | 2070 nM | 0.5 | 1040 ± 41 nM |  |  |  |  |
